Laboratory results as given in article PMC12594171, “DKK3-LRP1 complex and a chemical inhibitor regulate Aβ clearance in models of Alzheimer’s disease” (Science Advances, 2025).
pKd: −log10 of the molar value.

Target: low-density lipoprotein receptor-related protein 1 (LRP1), minireceptor mLRPIV (Homo sapiens, UniProt Q07954)
Experiment: SPR (Biacore T200, mLRPIV immobilized on CM5 chip); also inhibits DKK3 binding to mLRPIV by SPR, IC50 […]

Chain of low-density lipoprotein receptor-related protein 1 (LRP1), minireceptor mLRPIV (Q07954 3331-3778 limits assumed): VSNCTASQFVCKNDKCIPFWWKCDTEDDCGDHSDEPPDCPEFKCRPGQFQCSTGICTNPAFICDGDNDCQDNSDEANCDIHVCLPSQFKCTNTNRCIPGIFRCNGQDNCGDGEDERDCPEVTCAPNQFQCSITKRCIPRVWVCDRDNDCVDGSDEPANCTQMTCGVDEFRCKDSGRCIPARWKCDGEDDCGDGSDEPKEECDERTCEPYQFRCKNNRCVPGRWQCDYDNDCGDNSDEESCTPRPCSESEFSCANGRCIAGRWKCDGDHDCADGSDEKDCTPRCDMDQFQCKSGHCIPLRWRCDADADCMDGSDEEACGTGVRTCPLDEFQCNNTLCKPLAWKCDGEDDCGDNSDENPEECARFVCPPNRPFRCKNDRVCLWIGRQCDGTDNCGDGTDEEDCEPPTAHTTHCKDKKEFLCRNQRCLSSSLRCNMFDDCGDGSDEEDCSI

pKd: 5.10
Structure (SMILES): Cc1nn(-c2ccc(F)cc2)c(C)c1CNC1CCN(C2CC2)CC1 [SJ-300]
